Measured values reported in paper PMC6539903 (Molecules, 2019).

How the values were obtained:
HeLa = experiment: MTT antiproliferation assay, HeLa; assay type: cell-based; conditions: Homo sapiens, 48 h, n = 3, read-out: IC50 ± SD HeLa
Method: (§1) MCF-7 (human breast cell line), HeLa (human cervical cell line), A549 (human lung cell line), HepG2 (human liver cell line), SW620 (human colorectal cell line) and a non-cancer cell line, NCM460 (Human colonic epithelial cells) were preserved at the State Key Laboratory of Pharmaceutical Biotechnology, Nanjing University (Nanjing, China).
(§2) The antiproliferative activity of the synthetic compounds against the SW620, MCF-7, HeLa, A549, HepG2, and NUM460 cell lines was evaluated by a colorimetric assay based on a modified standard (MTT). […] Thereafter, MTT (5 mg/mL in PBS) was added to each well and incubated for 4 h. 150 μL of DMSO was added to each well and shaken with a shaker. The absorbance (OD 570 nm) was read at 630 nm on an ELISA reader (ELx800, BioTek, montpelier, VT, USA). IC50 values for the compounds were calculated by comparison to DMSO treated control wells. Three replicate wells were used for each drug concentration. Each assay was performed three times.

[1] = MTT cytotoxicity assay, non-cancer colon cells; assay type: cell-based; conditions: human, NCM460 colonic epithelial cells (non-cancer cell line), n = 3, non-cancer cell line, read-out: CC50 ± SD NUM460
Method: Besides, the MTT assay was performed on a non-cancer line NCM460 to assess the cytotoxicity of the test compound to normal colon cells.
as §1, §2

A549 = experiment: MTT antiproliferation assay, A549; assay type: cell-based; conditions: Homo sapiens, 48 h, n = 3, read-out: IC50 ± SD A549
Method: as §1, §2

HepG2 = experiment: MTT antiproliferation assay, HepG2; assay type: cell-based; conditions: Homo sapiens, 48 h, n = 3, read-out: IC50 ± SD HepG2
Method: as §1, §2

COX-1 = molecular target: T1, COX-1 (Homo sapiens, UniProt P23219); experiment: COX-1 inhibition assay (COX-1 ELISA kit); assay type: biochemical; conditions: mean of four determinations; read-out: IC50 ± SD COX-1
T1 construct: purchased Cayman Chemical 701170
Method: (§3) 3-(4,5-Dimethylthiazol-2-yl)-2,5-diphenyltetrazolium (MTT) were purchased from Beyotime Institute of Biotechnology (Haimen, China). Annexcin V-FITC cell apoptosis assay kit (catalog No.BA11100) was purchased from BIO-BOX (Nanjing, China). Fibronectin (#F1056) and laminin (#L2020) were purchased from Sigma-Aldrich (St. Louis, MO, USA).
(§4) Then 1 M HCl was added to the reaction mixture to stop the reaction, and one-tenth of the volume of saturated stannous chloride (50 mg/mL) was added. The reaction mixture was incubated at room temperature for 5 min, and PGF2 and PGH2 were produced.

COX-2 = molecular target: T2, COX-2 (Homo sapiens, UniProt P35354); experiment: COX-2 inhibition assay (COX-2 ELISA kit); assay type: biochemical; conditions: for Selectivity Index (SI) (COX-1 IC50/COX-2 IC50): in vitro COX-2 selectivity index; for IC50: mean of four determinations, read-out: IC50 ± SD COX-2
T2 construct: purchased Cayman Chemical 701180
T2 sequence (P35354 18-604): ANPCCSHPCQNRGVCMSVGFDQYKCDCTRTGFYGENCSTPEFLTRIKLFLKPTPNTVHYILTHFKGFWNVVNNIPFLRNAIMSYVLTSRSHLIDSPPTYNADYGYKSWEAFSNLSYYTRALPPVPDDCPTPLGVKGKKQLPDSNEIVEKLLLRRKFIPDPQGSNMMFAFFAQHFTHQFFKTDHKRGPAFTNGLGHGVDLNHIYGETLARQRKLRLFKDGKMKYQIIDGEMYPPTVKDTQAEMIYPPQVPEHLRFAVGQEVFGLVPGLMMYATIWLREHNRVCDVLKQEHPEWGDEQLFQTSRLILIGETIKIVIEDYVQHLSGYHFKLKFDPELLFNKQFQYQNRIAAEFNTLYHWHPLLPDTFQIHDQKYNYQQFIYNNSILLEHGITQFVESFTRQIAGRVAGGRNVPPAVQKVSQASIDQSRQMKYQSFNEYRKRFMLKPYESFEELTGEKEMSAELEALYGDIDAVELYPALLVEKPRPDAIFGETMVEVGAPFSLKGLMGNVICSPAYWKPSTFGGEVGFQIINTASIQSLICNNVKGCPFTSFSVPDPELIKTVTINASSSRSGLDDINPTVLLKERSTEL
Method: as §3, §4

SW620 cells = experiment: MTT antiproliferation assay, SW620; assay type: cell-based; conditions: Homo sapiens, SW-620, 48 h, n = 3, read-out: IC50 ± SD SW620
Method: as §1, §2

MCF-7 = experiment: MTT antiproliferation assay, MCF-7; assay type: cell-based; conditions: Homo sapiens, MCF7, 48 h, n = 3, read-out: IC50 ± SD MCF-7
Method: as §1, §2

T1 sequence (P23219 24-599): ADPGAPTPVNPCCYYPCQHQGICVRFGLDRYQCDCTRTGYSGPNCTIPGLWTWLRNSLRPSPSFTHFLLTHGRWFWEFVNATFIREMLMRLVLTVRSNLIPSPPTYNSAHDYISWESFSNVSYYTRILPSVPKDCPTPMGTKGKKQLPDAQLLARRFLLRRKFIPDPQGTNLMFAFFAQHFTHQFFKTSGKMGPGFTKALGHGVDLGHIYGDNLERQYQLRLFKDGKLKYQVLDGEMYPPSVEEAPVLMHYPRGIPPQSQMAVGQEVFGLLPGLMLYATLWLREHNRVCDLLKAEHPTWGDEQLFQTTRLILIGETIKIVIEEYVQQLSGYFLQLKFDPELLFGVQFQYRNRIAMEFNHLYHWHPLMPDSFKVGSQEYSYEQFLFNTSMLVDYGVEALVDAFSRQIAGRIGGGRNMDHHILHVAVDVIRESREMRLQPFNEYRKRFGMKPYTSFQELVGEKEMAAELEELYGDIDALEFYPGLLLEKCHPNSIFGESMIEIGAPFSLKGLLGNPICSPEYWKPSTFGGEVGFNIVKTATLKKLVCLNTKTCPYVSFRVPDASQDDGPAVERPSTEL

Compound | IC50 (HeLa) | melting point | CC50 at 48 h [1] | IC50 (A549) | IC50 (HepG2) | IC50 (COX-1) | Selectivity Index (SI) (COX-1 IC50/COX-2 IC50) (COX-2) | IC50 (COX-2) | IC50 (SW620 cells) | IC50 (MCF-7)
NS(=O)(=O)c1ccc(N2N=C(c3cccc(F)c3)CC2c2ccc3c(c2)OCCO3)cc1 (stereo not drawn) [Compound 4v, 4-(5-(2,3-Dihydrobenzo[b][1,4]dioxin-6-yl)-3-(3-fluorophenyl)-4,5-dihydro-1H-pyrazol-1-yl)benzenesulfonamide] | 8.95 ± 0.39 µM | 200 to 201 °C | 150 ± 6.94 µM | 6.47 ± 0.29 µM | 12.9 ± 0.99 µM | > 60 µM | >31.09 | 1.93 ± 0.08 µM | 4.84 ± 0.27 µM | 7.96 ± 0.55 µM
NS(=O)(=O)c1ccc(N2N=C(c3ccccc3)CC2c2ccc3c(c2)OCCO3)cc1 (stereo not drawn) [Compound 4k, 4-(5-(2,3-Dihydrobenzo[b][1,4]dioxin-6-yl)-3-phenyl-4,5-dihydro-1H-pyrazol-1-yl)benzenesulfonamide] | 8.44 ± 0.48 µM | 156 to 157 °C | 138 ± 11 µM | 5.92 ± 0.31 µM | 11.9 ± 0.91 µM | > 60 µM | >32.97 | 1.82 ± 0.16 µM | 4.56 ± 0.14 µM | 7.54 ± 0.42 µM
NS(=O)(=O)c1ccc(N2N=C(c3ccc(F)cc3F)CC2c2ccc3c(c2)OCCO3)cc1 (stereo not drawn) [Compound 4z, 4-(3-(2,4-Difluorophenyl)-5-(2,3-dihydrobenzo[b][1,4]dioxin-6-yl)-4,5-dihydro-1H-pyrazol-1-yl)benzenesulfonamide] | 8.34 ± 0.69 µM | 168 to 169 °C | 135 ± 9.63 µM | 5.78 ± 0.16 µM | 11.7 ± 0.86 µM | > 60 µM | >33.52 | 1.79 ± 0.13 µM | 4.48 ± 0.24 µM | 7.42 ± 0.63 µM
CCOc1ccc(C2=NN(c3ccc(S(N)(=O)=O)cc3)C(c3ccc4c(c3)OCCO4)C2)cc1 (stereo not drawn) [Compound 4n, 4-(5-(2,3-Dihydrobenzo[b][1,4]dioxin-6-yl)-3-(4-ethoxyphenyl)-4,5-dihydro-1H-pyrazol-1-yl)benzenesulfonamide] | 11.2 ± 0.86 µM | 193 to 194 °C | 157 ± 9.98 µM | 6.81 ± 0.55 µM | 13.5 ± 0.59 µM | > 60 µM | >24.59 | 2.44 ± 0.19 µM | 6.12 ± 0.49 µM | 9.88 ± 0.86 µM
NS(=O)(=O)c1ccc(N2N=C(c3ccc(F)cc3)CC2c2ccc3c(c2)OCCO3)cc1 (stereo not drawn) [Compound 4o, 4-(5-(2,3-Dihydrobenzo[b][1,4]dioxin-6-yl)-3-(4-fluorophenyl)-4,5-dihydro-1H-pyrazol-1-yl)benzenesulfonamide] | 7.12 ± 0.69 µM | 195 to 196 °C | 107 ± 9.21 µM | 4.43 ± 0.33 µM | 9.24 ± 0.74 µM | 38.41 ± 0.34 µM | 25.10 | 1.53 ± 0.12 µM | 3.83 ± 0.27 µM | 6.44 ± 0.37 µM
Cc1cc(C2=NN(c3ccc(S(N)(=O)=O)cc3)C(c3ccc4c(c3)OCCO4)C2)ccc1F (stereo not drawn) [Compound 4t, 4-(5-(2,3-Dihydrobenzo[b][1,4]dioxin-6-yl)-3-(4-fluoro-3-methylphenyl)-4,5-dihydro-1H-pyrazol-1-yl)benzenesulfonamide] | 6.97 ± 0.51 µM | 159 to 161 °C | 104 ± 4.74 µM | 4.26 ± 0.19 µM | 8.94 ± 0.67 µM | > 60 µM | >40.54 | 1.48 ± 0.02 µM | 3.74 ± 0.12 µM | 6.31 ± 0.39 µM
NS(=O)(=O)c1ccc(N2N=C(c3cc(F)cc(F)c3)CC2c2ccc3c(c2)OCCO3)cc1 (stereo not drawn) [Compound 4w, 4-(3-(3,5-Difluorophenyl)-5-(2,3-dihydrobenzo[b][1,4]dioxin-6-yl)-4,5-dihydro-1H-pyrazol-1-yl)benzenesulfonamide] | 7.04 ± 0.47 µM | 182 to 183 °C | 105 ± 8.87 µM | 4.34 ± 0.28 µM | 9.08 ± 0.71 µM | 55.02 ± 0.36 µM | 36.44 | 1.51 ± 0.09 µM | 3.78 ± 0.22 µM | 6.37 ± 0.39 µM
NS(=O)(=O)c1ccc(N2N=C(c3ccccc3)CC2c2ccc3c(c2)OCO3)cc1 (stereo not drawn) [Compound 4a, 4-(5-(Benzo[d][1,3]dioxol-5-yl)-3-phenyl-4,5-dihydro-1H-pyrazol-1-yl)benzenesulfonamide] | 6.32 ± 0.55 µM | 212 to 214 °C | 88.6 ± 3.96 µM | 3.54 ± 0.19 µM | 7.64 ± 0.57 µM | > 60 µM | >44.44 | 1.35 ± 0.08 µM | 3.38 ± 0.27 µM | 5.77 ± 0.39 µM
Cc1ccc(C2=NN(c3ccc(S(N)(=O)=O)cc3)C(c3ccc4c(c3)OCCO4)C2)cc1 (stereo not drawn) [Compound 4l, 4-(5-(2,3-Dihydrobenzo[b][1,4]dioxin-6-yl)-3-(p-tolyl)-4,5-dihydro-1H-pyrazol-1-yl)benzenesulfonamide] | 4.46 ± 0.36 µM | 153 to 154 °C | 68.7 ± 5.28 µM | 2.58 ± 0.18 µM | 5.92 ± 0.39 µM | 43.87 ± 0.37 µM | 46.67 | – | 2.35 ± 0.11 µM | 4.22 ± 0.16 µM
COc1ccc(C2=NN(c3ccc(S(N)(=O)=O)cc3)C(c3ccc4c(c3)OCCO4)C2)cc1 (stereo not drawn) [Compound 4m, 4-(5-(2,3-Dihydrobenzo[b][1,4]dioxin-6-yl)-3-(4-methoxyphenyl)-4,5-dihydro-1H-pyrazol-1-yl)benzenesulfonamide] | 7.22 ± 0.19 µM | 207 to 208 °C | 110 ± 7.42 µM | 4.54 ± 0.29 µM | 9.44 ± 0.77 µM | > 60 µM | >39.47 | 1.52 ± 0.09 µM | 3.88 ± 0.37 µM | 6.52 ± 0.33 µM
Cc1cccc(C2=NN(c3ccc(S(N)(=O)=O)cc3)C(c3ccc4c(c3)OCO4)C2)c1 (stereo not drawn) [Compound 4e, 4-(5-(Benzo[d][1,3]dioxol-5-yl)-3-(m-tolyl)-4,5-dihydro-1H-pyrazol-1-yl)benzenesulfonamide] | 7.22 ± 0.65 µM | 187 to 188 °C | 110 ± 7.71 µM | 4.54 ± 0.18 µM | 9.44 ± 0.74 µM | 29.77 ± 0.23 µM | 19.20 | 1.55 ± 0.06 µM | 3.88 ± 0.36 µM | 6.52 ± 0.46 µM
Cc1ccc(C2=NN(c3ccc(S(N)(=O)=O)cc3)C(c3ccc4c(c3)OCCO4)C2)cc1C (stereo not drawn) [Compound 4s, 4-(5-(2,3-Dihydrobenzo[b][1,4]dioxin-6-yl)-3-(3,4-dimethylphenyl)-4,5-dihydro-1H-pyrazol-1-yl)benzenesulfonamide] | 8.41 ± 0.17 µM | 166 to 168 °C | 137 ± 3.98 µM | 5.86 ± 0.47 µM | 11.8 ± 0.59 µM | > 60 µM | >33.33 | 1.8 ± 0.05 µM | 4.54 ± 0.31 µM | 7.51 ± 0.47 µM
NS(=O)(=O)c1ccc(N2N=C(c3cccc(Cl)c3Cl)CC2c2ccc3c(c2)OCCO3)cc1 (stereo not drawn) [Compound 4x, 4-(3-(2,3-Dichlorophenyl)-5-(2,3-dihydrobenzo[b][1,4]dioxin-6-yl)-4,5-dihydro-1H-pyrazol-1-yl)benzenesulfonamide] | – | 171 to 173 °C | – | – | – | – | – | – | – | –
